# Measurements published in US20170290889A1, “METHODS AND COMPOSITIONS FOR TREATING DYSBIOSIS AND GASTROINTESTINAL AND INFLAMMATORY DISORDERS” (New York University, priority 2016, published 2017).
# B1: rIL-4: recombinant IL-4 (Peprotech cat #214-14), type 2 cytokine, injected IP as complex with anti-IL4 (protein, UniProt P07750 21-140, looked up)
# Interleukin-4: HIHGCDKNHLREIIGILNEVTGEGTPCTEMDVPNVLTATKNTTESELVCRASKVLRIFYLKHGKTPCLKKNSSVLMELQRLFRAFRCLDSSISCTMNESKSTSLKDFLESLKSIMQMDYS
# modifications: complexed with anti-IL-4 antibody
# notes: recombinant IL-4 (Peprotech cat #214-14), type 2 cytokine, injected IP as complex with anti-IL4
# B2: rIL-13: recombinant IL-13 (Peprotech cat #210-13), type 2 cytokine, injected IP as complex with anti-IL13 (protein, UniProt P20109 19-131, looked up)
# Interleukin-13: APGPVPRSVSLPLTLKELIEELSNITQDQTPLCNGSMVWSVDLAAGGFCVALDSLTNISNCNAIYRTQRILHGLCNRKAPTTVSSLPDTKIEVAHFITKLLSYTKQLFRHGPF
# modifications: complexed with anti-IL-13 antibody
# notes: recombinant IL-13 (Peprotech cat #210-13), type 2 cytokine, injected IP as complex with anti-IL13
# Assays:
# [1] = system: Hookworm; assay: Albendazole deworming of Orang Asli (formalin-ether sedimentation, Kato Katz); type: in vivo, human
# [2] = system: Ascaris spp.; assay: as above; type: in vivo, human
# [3] = system: T. trichiura; assay: as above; type: in vivo, human
# [4] = system: Bacteroides vulgatus; assay: B. vulgatus colonization (stool, small intestinal tissue) in Nod2−/− mice, reported together with goblet cells; type: in vivo; conditions: Nod2−/− mice injected IP with complex of 5 μg recombinant cytokine and 25 μg anti-cytokine antibody for 21 days
# [5] = system: Clostridiales; assay: 16S sequencing of mouse stool / small intestinal microbiota (LEfSe); type: in vivo; conditions: stool of uninfected Nod2−/− mice treated with recombinant cytokine, 16S / LEfSe
# [6] = system: M2 macrophage activation genes; assay: RNA-seq gene expression analysis of small intestinal tissue (ileum) of Nod2−/− mice treated with rIL-13 or PBS; type: in vivo; conditions: for Log2 Fold Change: Nod2−/− mice treated with recombinant IL-13 compared to PBS controls
# From the text: Mice. Nod2−/−, Rag1−/−, Nod2−/−, and Stat6−/− mice on the C57BL/6 background were previously described and bred onsite in an MNV/Helicobacter-free specific pathogen free (SPF) facility at NYU School of Medicine (6, 23). Wild-type (WT) C57BL/6 mice were purchased from Jackson Laboratory and bred onsite to generate controls for experiments. Bone marrow chimeras were generated by lethally irradiating 8-week old female recipient mice (1100 CGy in two divided doses) followed by intravenous (i.v.) injection of 5×10^6 T cell-depleted bone marrow cells from donor female mice. For anti-CD4 treatment, mice were infected with T. muris and injected intra-peritoneally (IP) with 0.25 mg anti-CD4 (clone GK1.5) or anti-IgG2b isotype control (clone LTF-2) (BioXCell) every 3 days for 21 days and animals were sacrificed on day 21. For anti-IL13 treatment, mice were infected with H. polygyrus and injected IP with 0.15 mg anti-IL13 (clone 1316H) (eBioscience) or anti-IgG1 isotype control (clone 43414) (R&D Systems) starting on day 3 post-infection every 3 days for 12 days and animals were sacrificed on day 12. For recombinant IL-13 and IL-4 experiments, mice were injected IP with a complex of 25 μg of anti-IL13 (eBio1316H) and 5 μg of recombinant IL-13 (Peprotech cat #210-13), or a complex of 25 μg of anti-IL4 (BioXcel) and 5 μg of recombinant IL-4 (Peprotech cat #214-14) for 21 days and mice were sacrificed on day 21.
# Gene Expression Analysis. RNA was isolated from one cm of small intestinal tissue (ileum) from Nod2^−/− mice treated with rIL-13 or PBS, or WT mice treated with PBS for normalization. An RNA library was prepared using the TruSeq stranded total RNA, with the RiboZero Gold kit and samples were sequenced on the Illumina HiSeq to generate single-end 50 bp reads. Raw sequencing reads were aligned to the mouse reference genome mm10 and the RefSeq reference transcriptome using TopHat (v2.0.12) with the alignment parameter—library-type fr-firststrand (28). Reads with mappability score (MAPQ) <30 were removed. The total number of filtered reads were counted for each gene using htseq-count with the parameters—stranded=reverse and—mode=union. Singleton genes (i.e. genes with total count <1) were filtered and the resulting count matrix was used for differential analysis using the DESeq2 workflow with default parameters (29, 30). Differential genes with rIL-13 treatment were identified at FDR 10%. Pathway analysis was performed using the DAVID platform as previously described (6).
# [7] = T. trichiura, post-treatment n=64
molecule,measurement,setting,value
CCCSc1ccc2nc(NC(=O)OC)[nH]c2c1 [albendazole],Cure rate (%),[1]; 20 days,96 .3%
same,Number of infected persons cured after deworming,[1]; 20 days,26
same,range of epg after treatment,[1]; after albendazole 3×400 mg,22 epg
same,Light-intensity infections after treatment (%),[1]; post-treatment n=64,1.6%
same,"Light-intensity infections after treatment, number",[1]; post-treatment n=64,1
same,Total infections after treatment (%),[1]; post-treatment n=64,1.6%
same,"Total infections after treatment, number",[1]; post-treatment n=64,1
same,Cure rate (%),[2]; 20 days,80.0%
same,Number of infected persons cured after deworming,[2]; 20 days,8
same,range of epg after treatment,[2]; after albendazole 3×400 mg,22-4999 epg
same,Light-intensity infections after treatment (%),[2]; post-treatment n=64,3.1%
same,"Light-intensity infections after treatment, number",[2]; post-treatment n=64,2
same,Total infections after treatment (%),[2]; post-treatment n=64,3.1%
same,"Total infections after treatment, number",[2]; post-treatment n=64,2
same,Cure rate (%),"[3]; T. trichiura, 20 days, albendazole 3 doses, 400 mg/day",32.9%
same,range of epg after treatment,"[3]; T. trichiura, after albendazole 3×400 mg","22-2,266 epg"
same,Light-intensity infections after treatment (%),[3]; [7],70.3%
same,"Light-intensity infections after treatment, number",[3]; [7],45
same,Moderate-intensity infections after treatment (%),[3]; [7],3.1%
same,"Moderate-intensity infections after treatment, number",[3]; [7],2
same,Total infections after treatment (%),[3]; [7],73.4%
same,"Total infections after treatment, number",[3]; [7],47
same,"Trichuris trichiura egg burden (eggs per gram of feces, Kato-Katz)","[3]; post treatment with Albendazole (3 doses, 400 mg/day)",reduced
B1,effect on B. vulgatus and goblet cells,[4],sufficient to reproduce the effect of helminth infection
same,expansion of Clostridiales,[5],expansion of Clostridiales was also observed
same,expansion of Clostridiales,[5]; listed as IL-4,induces the expansion of bacteria from the class Clostridia in the GI tract
B2,effect on B. vulgatus and goblet cells,[4],sufficient to reproduce the effect of helminth infection
same,expansion of Clostridiales,[5],expansion of Clostridiales was also observed
same,expansion of Clostridiales,[5]; listed as IL-13,induces the expansion of bacteria from the class Clostridia in the GI tract
same,Log2 Fold Change,[6]; gene Arg1 (NM_007482),1.468
same,Log2 Fold Change,[6]; gene Ccl8 (NM_021443),1.5
same,Log2 Fold Change,[6]; gene Cd5l (NM_009690),1.504
same,Log2 Fold Change,[6]; gene Chi3l3 (NM_009892),2.681
same,Log2 Fold Change,[6]; gene Ear11 (NM_053113),1.698
same,Log2 Fold Change,[6]; gene Gm11428 (NM_001081957),1.53
same,Log2 Fold Change,[6]; gene Retnla (NM_020509),1.625
same,Log2 Fold Change,[6]; gene Saa3 (NM_011315),1.846
same,Log2 Fold Change,[6]; gene Serpina3n (NM_009252),1.58
same,RNA-seq analysis of intestinal tissues: response,[6]; rIL-13 treated Nod2−/− mice,wound healing response characterized by expression of M2 macrophage genes
